The values below come from patent US10214519B2, “Phosphatidylinositol 3-kinase inhibitors” (Gilead Sciences, Inc., priority 2016, dated 2019).

SMILES strings stand for the structures.

In this test the target is PI3Kβ (Homo sapiens (Human), UniProt P42338). The test is described as follows: PI3K isoform TR-FRET enzymatic assay (PI3Kβ). In kind it is biochemical. To be noted: 2× Km ATP, 30 minutes at 25° C. How it is done:
The compounds of formula (I) were characterized for their enzymatic activity against the PI3K isoforms. The activities were measured using a time-resolved fluorescence resonance energy transfer (TR-FRET) assay. TR-FRET monitored the formation of 3,4,5-inositol triphosphate molecule that competed with fluorescently labeled PIP3 for binding to the GRP-1 pleckstrin homology domain protein.
Class I PI3K isoforms were expressed and purified as heterodimeric recombinant proteins. All assay reagents and buffers for the TR-FRET assay were purchased from Millipore. […] The compounds were added to the assay solution and incubated for 30 minutes at 25° C. The reactions were terminated with a final concentration of 10 mM EDTA, 10 nM labeled-PIP3, and 35 nM Europium labeled GRP-1 detector protein before reading TR-FRET on an Envision plate reader (Ex: 340 nm; Em: 615/665 nm; 100 μs delay and 500 μs read window).
The results were normalized based on positive (1 μM wortmanin) and negative (DMSO) controls, and the IC50 values for PI3K α, β, δ, and γ were calculated from the fit of the dose-response curves to a four-parameter equation.
Background: Time-resolved FRET reads energy transfer from a long-lived donor to a nearby acceptor.

Sequence of PI3Kβ (P42338 whole entry, the tested form may be a part, canonical isoform): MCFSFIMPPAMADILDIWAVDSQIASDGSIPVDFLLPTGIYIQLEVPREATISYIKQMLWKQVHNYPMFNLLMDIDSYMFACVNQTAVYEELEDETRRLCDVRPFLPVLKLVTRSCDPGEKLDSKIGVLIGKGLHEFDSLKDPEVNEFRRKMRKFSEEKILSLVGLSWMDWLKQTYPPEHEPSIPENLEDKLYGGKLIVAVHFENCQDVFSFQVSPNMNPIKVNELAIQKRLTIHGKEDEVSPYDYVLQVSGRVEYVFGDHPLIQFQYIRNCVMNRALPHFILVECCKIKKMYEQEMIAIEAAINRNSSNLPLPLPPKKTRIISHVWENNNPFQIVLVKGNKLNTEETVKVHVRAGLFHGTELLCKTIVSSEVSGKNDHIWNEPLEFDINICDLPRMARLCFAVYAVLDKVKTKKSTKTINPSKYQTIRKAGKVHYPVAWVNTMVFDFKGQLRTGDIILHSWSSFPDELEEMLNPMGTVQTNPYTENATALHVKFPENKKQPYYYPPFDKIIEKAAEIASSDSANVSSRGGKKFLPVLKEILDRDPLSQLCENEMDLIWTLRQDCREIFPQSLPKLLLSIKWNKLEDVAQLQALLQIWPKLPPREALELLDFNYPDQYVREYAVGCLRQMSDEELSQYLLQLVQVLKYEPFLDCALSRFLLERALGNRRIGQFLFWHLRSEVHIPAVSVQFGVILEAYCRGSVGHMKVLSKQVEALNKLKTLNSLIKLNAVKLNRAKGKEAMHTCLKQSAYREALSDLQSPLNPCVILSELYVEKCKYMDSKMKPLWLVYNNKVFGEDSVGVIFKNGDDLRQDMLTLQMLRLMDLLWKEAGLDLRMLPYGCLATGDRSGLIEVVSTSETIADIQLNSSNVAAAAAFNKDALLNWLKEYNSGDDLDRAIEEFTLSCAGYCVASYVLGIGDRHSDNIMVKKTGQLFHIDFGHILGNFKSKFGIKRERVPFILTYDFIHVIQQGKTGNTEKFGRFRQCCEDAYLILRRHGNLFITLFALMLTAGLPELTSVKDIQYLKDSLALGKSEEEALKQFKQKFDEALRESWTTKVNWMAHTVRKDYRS
Sequence of PI3Kβ (P27986 whole entry partner, the tested form may be a part, canonical isoform): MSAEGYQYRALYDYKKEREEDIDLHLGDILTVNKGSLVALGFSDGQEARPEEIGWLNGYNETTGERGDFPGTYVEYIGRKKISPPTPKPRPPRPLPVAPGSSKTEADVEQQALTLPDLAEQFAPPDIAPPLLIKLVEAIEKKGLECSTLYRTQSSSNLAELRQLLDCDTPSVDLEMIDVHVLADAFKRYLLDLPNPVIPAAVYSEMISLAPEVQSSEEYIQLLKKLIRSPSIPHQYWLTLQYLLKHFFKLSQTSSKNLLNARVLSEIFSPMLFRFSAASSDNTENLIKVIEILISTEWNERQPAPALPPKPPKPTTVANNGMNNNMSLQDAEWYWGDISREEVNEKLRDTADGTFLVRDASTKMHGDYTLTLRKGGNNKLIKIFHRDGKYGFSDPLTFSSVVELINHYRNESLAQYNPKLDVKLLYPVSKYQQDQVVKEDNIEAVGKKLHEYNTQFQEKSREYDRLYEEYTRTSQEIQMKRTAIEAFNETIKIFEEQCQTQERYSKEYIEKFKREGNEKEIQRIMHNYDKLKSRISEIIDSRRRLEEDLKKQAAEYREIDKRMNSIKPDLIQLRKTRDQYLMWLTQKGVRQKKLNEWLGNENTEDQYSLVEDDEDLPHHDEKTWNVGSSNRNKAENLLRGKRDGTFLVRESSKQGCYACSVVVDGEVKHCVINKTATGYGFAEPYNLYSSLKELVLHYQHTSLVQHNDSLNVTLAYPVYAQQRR

The IC50 is the concentration at which inhibition is half-maximal. Read a high IC50 as lower potency. For the molecule `CCc1nc2c(-c3nnc[nH]3)cc(N3CCOCC3)cc2n1-c1ccnc2c(F)cccc12` [Example 139, 4-[2-ethyl-3-(8-fluoroquinolin-4-yl)-7-(4H-1,2,4-triazol-3-yl)benzimidazol-5-yl]morpholine], the IC50 is 14 nM.
Then `CCc1nc2c(-c3nnc[nH]3)cc(N3CCOCC3)cc2n1-c1c(Cl)cnc2c(Cl)cccc12` [Example 98, 4-[3-(3,8-dichloroquinolin-4-yl)-2-ethyl-7-(4H-1,2,4-triazol-3-yl)benzimidazol-5-yl]morpholine], with 13 nM.
`Cc1nc2c(-c3cncnc3)cc(N3CCOCC3)cc2n1-c1ccnc2c(Cl)cccc12` [Example 315, 4-(1-(8-chloroquinolin-4-yl)-2-methyl-4-(pyrimidin-5-yl)-1H-benzo[d]imidazol-6-yl)morpholine] came in with an IC50 of 490 nM.
Then `Cc1nc(-c2cc(N3CCOCC3)cc3c2nc(C)n3-c2ccnc3c(Cl)cccc23)sc1C` [Example 216, 4-[3-(8-chloroquinolin4-yl)-7-(4,5-dimethyl-1,3-thiazol-2-yl)-2-methylbenzimidazol-5-yl]morpholine], with 380 nM; and `CCc1nc2c(-c3cnc[nH]3)cc(N3CCOCC3)cc2n1-c1cc(C)nc2c(Cl)ccc(Cl)c12` [Example 334, 4-[3-(5,8-dichloro-2-methylquinolin-4-yl)-2-ethyl-7-(1H-imidazol-5-yl)benzimidazol-5-yl]morpholine], with 24 nM; and `Cc1csc(-c2cc(N3CCOCC3)cc3c2nc(C)n3-c2ccnc3c(F)ccc(F)c23)n1` [Example 233, 4-[3-(5,8-difluoroquinolin-4-yl)-2-methyl-7-(4-methyl-1,3-thiazol-2-yl)benzimidazol-5-yl]morpholine], with 8 nM.
Then `CCc1nc2c(-c3cnc(C)[nH]3)cc(N3CCOCC3)cc2n1-c1ccnc2c(Cl)cccc12` [Example 245, 4-[3-(8-chloroquinolin-4-yl)-2-ethyl-7-(2-methyl-1H-imidazol-5-yl)benzimidazol-5-yl]morpholine], with 21 nM; and `Cc1nc2c(-c3cc[nH]n3)cc(N3CCOCC3)cc2n1-c1ccnc2c(Cl)cccc12` [Example 262, 4-[3-(8-chloroquinolin-4-yl)-2-methyl-7-(1H-pyrazol-3-yl)benzimidazol-5-yl]morpholine], with 27 nM; and `Cc1nc2c(-c3nnc[nH]3)cc(N3CCOCC3)cc2n1-c1ccnc2c(Cl)cccc12` (atropisomer, axis not shown) [Compound 360, 4-[3-(8-chloroquinolin-4-yl)-2-methyl-7-(4H-1,2,4-triazol-3-yl)benzimidazol-5-yl]morpholine], with 2800 nM.
Then `CCc1nc2c(-c3nnc[nH]3)cc(N3CCOCC3)cc2n1-c1ccnc2ccccc12` [Example 107, 4-[2-ethyl-3-quinolin-4-yl-7-(4H-1,2,4-triazol-3-yl)benzimidazol-5-yl]morpholine], with 29 nM; and `CCc1nc2c(-c3cnc(Cl)[nH]3)cc(N3CCOCC3)cc2n1-c1ccnc2c(Cl)c(F)ccc12` [Example 295, 4-[3-(8-chloro-7-fluoroquinolin-4-yl)-7-(2-chloro-1H-imidazol-5-yl)-2-ethylbenzimidazol-5-yl]morpholine], with 12 nM; and `Cc1nnc(-c2cc(N3CCOCC3)cc3c2nc(C)n3-c2ccnc3cccc(C)c23)[nH]1` [Example 93, 4-[2-methyl-3-(5-methylquinolin-4-yl)-7-(5-methyl-4H-1,2,4-triazol-3-yl)benzimidazol-5-yl]morpholine], with 290 nM.
With `Fc1cccc2c(-n3c(C4CC4)nc4c(-c5cnc(Cl)[nH]5)cc(N5CCOCC5)cc43)ccnc12` [Example 287, 4-[7-(2-chloro-1H-imidazol-5-yl)-2-cyclopropyl-3-(8-fluoroquinolin-4-yl)benzimidazol-5-yl]morpholine], it took 56 nM to reach half-maximal inhibition (IC50).
Then `Clc1cccc2c(-n3c(C4CC4)nc4c(-c5ncco5)cc(N5CCOCC5)cc43)ccnc12` [Example 228, 4-[3-(8-chloroquinolin-4-yl)-2-cyclopropyl-7-(1,3-oxazol-2-yl)benzimidazol-5-yl]morpholine], with 10 nM.
